Literature values in US9730952B2, “Methods for treating and preventing mucositis” (Indena S.p.A., priority 2006, dated 2017).

Legend:
[1] = test system: numerous strains of Candida and other pathogenic fungi

Structure (SMILES): COc1ccc2c(c[n+](C)c3c4cc5c(cc4ccc23)OCO5)c1OC [chelerythrine]
- concentration inhibiting growth of Gram+ and Gram− bacteria (Gram+ and Gram− bacteria): nanomolar concentrations
- concentration inhibiting growth of numerous strains of Candida and other pathogenic fungi [1]: nanomolar concentrations

Structure (SMILES): CN1Cc2c(ccc3c2OCO3)[C@@H]2[C@H]1c1cc3c(cc1C[C@@H]2O)OCO3 [chelidonine]
- concentration inhibiting growth of Gram+ and Gram− bacteria (Gram+ and Gram− bacteria): nanomolar concentrations
- concentration inhibiting growth of numerous strains of Candida and other pathogenic fungi [1]: nanomolar concentrations
